Test results reported in ChEMBL document CHEMBL1201862, “PubChem BioAssay data set” (2004).
Active and inactive are the calls of the source.

Assays:
[1] = THP-1 cell cytotoxicity, dose response, cytotoxicity control for non-replicating M. tuberculosis project (AID 489025); type: functional
[2] = biological target: T1, Sentrin-specific protease 8 (Homo sapiens, UniProt Q96LD8); type: functional;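 also: luminescence read-out of SENP8 inhibition, dose-response confirmation following an ultra-high-throughput screen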
T1 sequence (Q96LD8 whole entry): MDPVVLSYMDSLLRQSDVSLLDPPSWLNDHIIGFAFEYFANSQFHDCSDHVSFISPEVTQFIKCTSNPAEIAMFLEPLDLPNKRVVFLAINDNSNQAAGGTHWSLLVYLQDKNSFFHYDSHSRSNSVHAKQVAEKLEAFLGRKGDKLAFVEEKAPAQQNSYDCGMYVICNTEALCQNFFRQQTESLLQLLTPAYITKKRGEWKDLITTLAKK

[3] = cells; type: functional
[4] = biological target: T2, Caspase-3 (Homo sapiens, UniProt P42574); type: functional;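 also: Dose-response selectivity test against caspase-3 for candidate inhibitors of sentrin-specific proteases (SENPs)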
T2 sequence (P42574 whole entry): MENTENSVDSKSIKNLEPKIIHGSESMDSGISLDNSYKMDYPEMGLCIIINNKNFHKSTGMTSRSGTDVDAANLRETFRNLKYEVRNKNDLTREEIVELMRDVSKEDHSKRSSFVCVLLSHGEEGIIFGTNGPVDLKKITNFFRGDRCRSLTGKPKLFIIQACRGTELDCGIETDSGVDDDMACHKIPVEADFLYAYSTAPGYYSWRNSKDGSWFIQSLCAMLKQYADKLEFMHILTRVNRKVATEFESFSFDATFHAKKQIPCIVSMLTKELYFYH

[5] = system: HEK293; assay: cells; type: functional, cell-based; conditions: Homo sapiens
[6] = biological target: Nuclear receptor subfamily 5 group A member 2 (Homo sapiens, UniProt O00482); type: functional, cell-based;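 also: HEK293T cells transfected with LRH-1 and a StAR promoter luciferase reporter; potency for inhibitors that lower LRH-1 driven reporter light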
Nuclear receptor subfamily 5 group A member 2, sequence (O00482 whole entry): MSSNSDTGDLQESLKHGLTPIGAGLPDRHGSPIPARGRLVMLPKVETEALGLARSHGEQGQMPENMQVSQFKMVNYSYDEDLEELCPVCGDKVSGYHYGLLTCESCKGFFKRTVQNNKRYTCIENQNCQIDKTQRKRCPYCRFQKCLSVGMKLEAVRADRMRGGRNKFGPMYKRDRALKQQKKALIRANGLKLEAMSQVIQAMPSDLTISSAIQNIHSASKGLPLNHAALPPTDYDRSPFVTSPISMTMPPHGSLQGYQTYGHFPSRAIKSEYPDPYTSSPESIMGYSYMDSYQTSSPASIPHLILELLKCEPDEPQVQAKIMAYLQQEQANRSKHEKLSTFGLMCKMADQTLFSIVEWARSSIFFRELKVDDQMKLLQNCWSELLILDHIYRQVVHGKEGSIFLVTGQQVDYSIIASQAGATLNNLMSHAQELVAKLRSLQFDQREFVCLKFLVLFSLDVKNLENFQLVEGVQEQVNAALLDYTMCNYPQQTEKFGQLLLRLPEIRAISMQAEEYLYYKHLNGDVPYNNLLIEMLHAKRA

[7] = system: HEK293; assay: NOD1 signaling inhibitors, primary screen, cell-based, luminescence, uHTS (AID 1578); type: functional; conditions: Homo sapiens
[8] = biological target: T3, Sentrin-specific protease 6 (Homo sapiens, UniProt Q9GZR1); type: functional;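 also: Luminescence-based dose-response confirmatory assay of SENP6 inhibition, following up an ultra-high-throughput screen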
T3 sequence (Q9GZR1 whole entry): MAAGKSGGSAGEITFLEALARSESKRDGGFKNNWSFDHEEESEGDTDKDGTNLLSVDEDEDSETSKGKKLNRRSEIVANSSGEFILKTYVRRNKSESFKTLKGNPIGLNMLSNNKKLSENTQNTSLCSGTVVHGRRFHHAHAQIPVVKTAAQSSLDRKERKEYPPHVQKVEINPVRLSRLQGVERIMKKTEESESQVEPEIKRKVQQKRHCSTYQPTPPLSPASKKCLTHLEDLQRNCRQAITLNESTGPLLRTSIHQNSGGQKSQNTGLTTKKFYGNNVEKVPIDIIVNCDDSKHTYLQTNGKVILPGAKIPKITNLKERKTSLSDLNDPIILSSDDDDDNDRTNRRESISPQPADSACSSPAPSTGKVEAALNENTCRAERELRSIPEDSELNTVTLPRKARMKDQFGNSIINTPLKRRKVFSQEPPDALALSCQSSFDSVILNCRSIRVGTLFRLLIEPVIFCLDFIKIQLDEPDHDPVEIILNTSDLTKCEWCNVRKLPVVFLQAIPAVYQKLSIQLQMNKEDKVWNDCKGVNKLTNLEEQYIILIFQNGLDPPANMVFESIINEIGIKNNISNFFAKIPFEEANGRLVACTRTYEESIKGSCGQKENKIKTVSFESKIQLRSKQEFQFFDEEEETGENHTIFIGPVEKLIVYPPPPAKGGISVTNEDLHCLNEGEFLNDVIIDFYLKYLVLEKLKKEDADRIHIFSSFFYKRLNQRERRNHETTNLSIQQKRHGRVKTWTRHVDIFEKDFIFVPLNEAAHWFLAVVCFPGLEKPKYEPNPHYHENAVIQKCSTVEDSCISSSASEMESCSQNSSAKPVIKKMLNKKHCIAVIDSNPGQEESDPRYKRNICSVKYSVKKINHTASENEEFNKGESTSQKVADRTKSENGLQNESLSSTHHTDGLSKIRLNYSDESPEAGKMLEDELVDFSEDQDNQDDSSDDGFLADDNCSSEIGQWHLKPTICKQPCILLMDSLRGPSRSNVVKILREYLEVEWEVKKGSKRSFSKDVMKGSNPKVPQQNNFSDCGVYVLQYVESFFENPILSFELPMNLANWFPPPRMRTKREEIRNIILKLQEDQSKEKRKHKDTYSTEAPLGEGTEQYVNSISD

[9] = biological target: T4, Sentrin-specific protease 7 (Homo sapiens, UniProt Q9BQF6); type: functional;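 also: Luminescence-based dose-response confirmation of ultra-high-throughput screening hits, measuring inhibition of SENP7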
T4 sequence (Q9BQF6 whole entry): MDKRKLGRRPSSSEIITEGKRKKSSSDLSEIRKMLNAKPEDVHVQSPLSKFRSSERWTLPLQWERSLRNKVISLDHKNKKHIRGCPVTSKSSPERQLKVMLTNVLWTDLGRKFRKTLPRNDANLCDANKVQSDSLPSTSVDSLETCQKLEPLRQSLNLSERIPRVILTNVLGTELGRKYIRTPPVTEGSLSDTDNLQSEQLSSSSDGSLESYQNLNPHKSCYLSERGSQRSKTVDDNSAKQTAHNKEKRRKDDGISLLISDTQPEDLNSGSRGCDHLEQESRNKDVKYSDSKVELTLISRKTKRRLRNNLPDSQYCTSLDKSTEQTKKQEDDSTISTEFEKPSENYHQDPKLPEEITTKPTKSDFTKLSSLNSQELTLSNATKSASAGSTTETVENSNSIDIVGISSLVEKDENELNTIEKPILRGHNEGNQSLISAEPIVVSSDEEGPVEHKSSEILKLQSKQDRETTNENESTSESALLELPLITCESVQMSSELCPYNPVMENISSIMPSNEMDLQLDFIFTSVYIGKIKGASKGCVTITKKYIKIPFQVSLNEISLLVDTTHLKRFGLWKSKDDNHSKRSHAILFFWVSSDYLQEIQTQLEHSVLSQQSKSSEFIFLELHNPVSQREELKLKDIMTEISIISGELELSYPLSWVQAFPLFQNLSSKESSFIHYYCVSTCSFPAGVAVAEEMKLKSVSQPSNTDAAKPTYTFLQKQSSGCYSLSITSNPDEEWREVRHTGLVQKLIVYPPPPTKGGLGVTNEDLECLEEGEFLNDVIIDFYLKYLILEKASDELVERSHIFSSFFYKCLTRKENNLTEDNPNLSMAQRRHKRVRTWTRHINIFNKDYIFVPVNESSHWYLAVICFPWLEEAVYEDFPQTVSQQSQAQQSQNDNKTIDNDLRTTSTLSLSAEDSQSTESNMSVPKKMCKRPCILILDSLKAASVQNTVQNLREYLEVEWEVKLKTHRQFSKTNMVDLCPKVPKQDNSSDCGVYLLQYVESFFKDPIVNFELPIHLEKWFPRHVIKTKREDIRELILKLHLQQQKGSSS

[10] = system: HEK293; assay: NOD2 signaling inhibitors in MDP-stimulated cells, cell-based, uHTS, luminescence (AID 2001); type: functional; conditions: Homo sapiens
[11] = biological target: Steroidogenic factor 1 (Homo sapiens, UniProt Q13285); assay: Counterscreen for inverse agonists of the liver receptor homolog-1 (LRH-1; NR5A2): Luminescence-based cell-based high throughput dose response assay to identify inverse agonists of the Steroidogenic Factor 1 Nuclear Receptor (SF1; NR5A1).; type: functional
Steroidogenic factor 1, sequence (Q13285 whole entry): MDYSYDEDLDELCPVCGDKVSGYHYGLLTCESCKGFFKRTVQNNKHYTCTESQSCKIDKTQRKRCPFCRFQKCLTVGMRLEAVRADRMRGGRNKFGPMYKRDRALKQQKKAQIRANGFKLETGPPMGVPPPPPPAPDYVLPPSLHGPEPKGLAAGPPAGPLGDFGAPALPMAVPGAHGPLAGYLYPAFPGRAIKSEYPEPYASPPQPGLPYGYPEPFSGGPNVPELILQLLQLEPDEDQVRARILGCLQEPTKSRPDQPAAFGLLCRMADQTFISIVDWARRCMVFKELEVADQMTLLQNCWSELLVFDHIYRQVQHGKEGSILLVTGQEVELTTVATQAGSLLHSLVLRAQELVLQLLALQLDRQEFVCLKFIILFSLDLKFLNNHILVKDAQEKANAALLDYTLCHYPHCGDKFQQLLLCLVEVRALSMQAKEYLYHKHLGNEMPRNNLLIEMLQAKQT

[12] = StAR promoter reporter inhibition counter-screen, dose response, counter-screen for LRH-1 inverse agonist project, cell-based, luminescence, luciferase reporter (AID 651969); type: functional
[13] = system: HEK293; assay: cells; type: functional, cell-based; conditions: Homo sapiens; remark: listed apart in the source
[14] = system: HEK293; assay: cells; type: functional, cell-based; conditions: Homo sapiens; remark: listed apart in the source
[15] = biological target: Nucleotide-binding oligomerization domain-containing protein 2 (Homo sapiens, UniProt Q9HC29); assay: NOD2 signaling inhibitors, cell-based, luminescence, uHTS, HEK293 (AID 1566); type: functional
Nucleotide-binding oligomerization domain-containing protein 2, sequence (Q9HC29 whole entry, the tested form may be a part): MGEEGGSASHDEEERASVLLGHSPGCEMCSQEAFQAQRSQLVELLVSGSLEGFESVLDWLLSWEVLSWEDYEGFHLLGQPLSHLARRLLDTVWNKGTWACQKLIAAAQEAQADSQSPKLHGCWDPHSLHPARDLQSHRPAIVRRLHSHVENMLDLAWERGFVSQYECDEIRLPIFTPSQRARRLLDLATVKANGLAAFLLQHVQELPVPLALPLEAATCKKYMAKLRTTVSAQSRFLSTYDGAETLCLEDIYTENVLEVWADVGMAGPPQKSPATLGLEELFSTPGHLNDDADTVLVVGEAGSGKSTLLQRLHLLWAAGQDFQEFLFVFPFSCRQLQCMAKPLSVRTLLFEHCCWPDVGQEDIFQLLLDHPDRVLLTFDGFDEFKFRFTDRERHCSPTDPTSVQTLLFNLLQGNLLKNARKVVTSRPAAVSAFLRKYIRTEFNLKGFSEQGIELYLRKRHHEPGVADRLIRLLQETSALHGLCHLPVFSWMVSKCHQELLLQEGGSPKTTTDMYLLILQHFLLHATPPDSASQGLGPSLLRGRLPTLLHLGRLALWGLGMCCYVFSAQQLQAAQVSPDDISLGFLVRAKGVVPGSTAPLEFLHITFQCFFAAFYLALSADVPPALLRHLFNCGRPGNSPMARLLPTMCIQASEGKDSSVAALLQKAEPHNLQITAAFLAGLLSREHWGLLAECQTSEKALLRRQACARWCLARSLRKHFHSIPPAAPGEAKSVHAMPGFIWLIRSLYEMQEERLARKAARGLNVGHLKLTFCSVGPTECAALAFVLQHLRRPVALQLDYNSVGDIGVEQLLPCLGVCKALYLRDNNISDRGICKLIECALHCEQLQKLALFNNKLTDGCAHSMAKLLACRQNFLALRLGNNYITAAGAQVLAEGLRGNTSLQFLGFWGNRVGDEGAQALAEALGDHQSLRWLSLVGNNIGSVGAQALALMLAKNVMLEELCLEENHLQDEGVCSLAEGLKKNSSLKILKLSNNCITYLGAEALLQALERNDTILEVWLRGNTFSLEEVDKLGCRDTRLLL

[16] = biological target: T5, Protein RecA (Mycobacterium tuberculosis, UniProt P9WHJ3); assay: Fluorescence Cell-Free Homogeneous Dose Retest to Identify Inhibitors of RecA-Intein Splicing Activity. [Related pubchem assays (depositor defined):AID2097, AID2223, AID489010, AID492950]; type: functional
T5 sequence (P9WHJ3 whole entry): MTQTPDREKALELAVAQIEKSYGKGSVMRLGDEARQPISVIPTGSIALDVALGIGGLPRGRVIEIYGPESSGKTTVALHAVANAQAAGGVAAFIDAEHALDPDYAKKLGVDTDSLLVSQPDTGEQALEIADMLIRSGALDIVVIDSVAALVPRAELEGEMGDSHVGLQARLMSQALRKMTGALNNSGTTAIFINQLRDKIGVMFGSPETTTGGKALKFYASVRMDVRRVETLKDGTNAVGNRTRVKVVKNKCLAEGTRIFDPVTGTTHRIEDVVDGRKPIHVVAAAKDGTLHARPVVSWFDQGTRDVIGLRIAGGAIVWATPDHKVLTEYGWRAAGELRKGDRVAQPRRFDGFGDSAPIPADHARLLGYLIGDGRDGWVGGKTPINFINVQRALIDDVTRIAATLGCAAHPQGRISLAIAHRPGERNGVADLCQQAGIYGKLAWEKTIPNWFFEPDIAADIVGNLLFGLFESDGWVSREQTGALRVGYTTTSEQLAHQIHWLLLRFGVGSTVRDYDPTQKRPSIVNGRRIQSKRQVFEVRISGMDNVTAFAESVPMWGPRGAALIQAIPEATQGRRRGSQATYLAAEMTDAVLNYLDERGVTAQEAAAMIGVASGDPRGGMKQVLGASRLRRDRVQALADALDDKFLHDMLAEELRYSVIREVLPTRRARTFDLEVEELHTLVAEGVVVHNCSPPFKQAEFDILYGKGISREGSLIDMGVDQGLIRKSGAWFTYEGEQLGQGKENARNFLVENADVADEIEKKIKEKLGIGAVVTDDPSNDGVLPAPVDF

[17] = system: BJ; assay: cytotoxicity toward BJ-TERT-LT-ST fibroblasts, dose response, cell-based, RAS-independent, luminescence (AID 1935); type: functional; conditions: Homo sapiens;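 also: BJ fibroblasts immortalized with TERT plus LT and ST oncogenes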
[18] = system: BJ; assay: cells; type: functional, cell-based; conditions: Homo sapiens
[19] = biological target: T6, Replicative DNA helicase DnaB (Mycobacterium tuberculosis, UniProt P9WMR3); assay: DnaB intein splicing inhibitors, dose response, biochemical, cell-free fluorescence (AID 449749); type: functional
T6 sequence (P9WMR3 whole entry): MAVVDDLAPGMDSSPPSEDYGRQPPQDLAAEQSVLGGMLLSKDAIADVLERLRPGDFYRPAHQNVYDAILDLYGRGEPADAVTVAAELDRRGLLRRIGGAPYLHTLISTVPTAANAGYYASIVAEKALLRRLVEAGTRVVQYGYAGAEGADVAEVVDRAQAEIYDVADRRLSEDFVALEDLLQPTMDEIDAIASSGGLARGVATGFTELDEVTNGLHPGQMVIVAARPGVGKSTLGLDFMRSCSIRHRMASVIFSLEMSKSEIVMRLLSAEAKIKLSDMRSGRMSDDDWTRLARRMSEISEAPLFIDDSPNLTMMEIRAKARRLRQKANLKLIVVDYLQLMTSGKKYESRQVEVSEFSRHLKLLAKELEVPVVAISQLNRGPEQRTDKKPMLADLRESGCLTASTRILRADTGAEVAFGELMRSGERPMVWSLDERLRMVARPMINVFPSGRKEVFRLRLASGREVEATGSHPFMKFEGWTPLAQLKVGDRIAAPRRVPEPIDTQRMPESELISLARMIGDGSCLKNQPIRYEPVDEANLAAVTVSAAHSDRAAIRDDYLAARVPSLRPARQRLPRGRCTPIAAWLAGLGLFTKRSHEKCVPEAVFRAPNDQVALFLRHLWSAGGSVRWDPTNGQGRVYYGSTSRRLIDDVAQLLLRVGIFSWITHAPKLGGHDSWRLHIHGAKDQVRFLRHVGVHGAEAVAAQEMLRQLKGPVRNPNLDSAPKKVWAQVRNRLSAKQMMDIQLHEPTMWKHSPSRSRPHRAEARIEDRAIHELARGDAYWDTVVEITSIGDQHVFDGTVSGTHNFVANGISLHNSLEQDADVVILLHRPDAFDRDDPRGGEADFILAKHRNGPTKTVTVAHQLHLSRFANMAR

[20] = system: BJ; assay: cytotoxicity toward BJ-TERT fibroblasts, dose response, cell-based, RAS-independent, luminescence (AID 1933); type: functional; conditions: Homo sapiens
[21] = cytotoxicity toward DRD oncogenic fibroblasts, dose response, cell-based, non-viral oncogenic, luminescence (AID 1934); type: functional; conditions: Homo sapiens

SMILES | IC50 [5] | EC50 [7] | IC50 [10] | IC50 [13] | IC50 [14] | EC50 [15] | also measured
O=C(Nc1nc2c(Cl)cccc2s1)c1ccc([N+](=O)[O-])o1 | 7.38 µM (active) | 5.52 µM (active) | 13.2 µM (inactive) | 18.6 µM (active) | – | – | CC50 [1]: 39.3 µM (active); IC50 [2]: 32.9 µM (active); IC50 [3]: 10.4 µM (active); IC50 [4]: 61.8 µM (active); IC50 [6]: 0.148 µM (active); IC50 [8]: 20.3 µM (active); IC50 [9]: 17.2 µM (active); IC50 [11]: 0.443 µM (active); IC50 [12]: 35.9 µM (inactive)
CCOC(=O)c1sc2ccccc2c1OC(=O)c1ccc(C)cc1 | > 20 µM (inactive) | 10.7 µM (active) | 6.76 µM (active) | 9.53 µM (active) | > 20 µM (inactive) | 2.22 µM (active) | –
O=C(CCl)Nc1cc(-c2ccccc2)nn1-c1ccccc1 | 19.2 µM (active) | 4.71 µM (active) | 7.21 µM (active) | 4.63 µM (active) | > 20 µM (inactive) | > 20 µM (inactive) | EC50 [16]: 5.55 µM (active); EC50 [17]: 5.05 µM (active); EC50 [18]: 9.6 µM (active); AC50 [19]: > 380 µM (inactive); EC50 [20]: 5.38 µM (inconclusive); EC50 [21]: 8.91 µM (active)
